Test results taken from patent publication US20250302846A1, “ANTIBIOTIC COMPOSITION AND METHODS OF USE THEREOF” (THE REGENTS OF THE UNIVERSITY OF COLORADO A BODY CORPORATE, priority 2022, published 2025).
Values joined by “and” are separate entries in the source; they are usually repeats but may differ in a detail not shown here. Equal entries are not always repeated. Where two headings read alike, the source gives them in different places.

Experiments:
Format in all cases: cell-based
[1] = test system: S. Typhimurium (SL1344); assay: Minimum inhibitory concentration determination in broth; details: for MIC50: Salmonella enterica, TYPHIMURIUM
Method: A, B) Dose response curves monitoring S. Typhimurium (SL1344) or E. coli (K12) growth from an OD600 of 0.01, normalized to growth in 2% DMSO under the indicated condition. Mean and SEM of at least three biological replicates performed with technical triplicates; curve fit: sigmoidal, 4P L. C-E) Checkerboard assays of S. Typhimurium SL1344 growth from an OD600 of 0.01 in LB for 18 hours with novobiocin (up to 100 μg/mL) and (C) PMB (up to 48 μM), (D) JDI (up to 150 μM), or (E) D66 (up to 150 μM). Growth was normalized to growth in 2% DMSO, with the darkest blue representing 100% growth and white representing 0%.
Minimum inhibitory concentration determination: Overnight LB-grown cultures were diluted in LB or MHB to an optical density (OD600) of 0.01 and distributed into polystyrene 96-well flat-bottom plates (Greiner, 655185). […] The final DMSO concentration was at or below 2%. Where indicated, PMB [0.5 μg/mL] was added prior to D66. Plates were grown at 37° C. with shaking and OD600 was monitored (BioTek Synergy H1 or BioTek Eon). MICs were defined as the concentration at which 95% of growth was inhibited (OD600).

[2] = test system: S. Typhimurium; assay: Bacterial membrane potential assay with DiSC3(5); details: mid-log cells in LB with PMB [0.5 μg/mL]; corrected for quenching by D66; JD1 [70 μM]
Method: FIG. 3A-F. D66 rapidly perturbs the bacterial cytoplasmic membrane with minor disruption of barrier function. Mid-log phase S. Typhimurium cells grown in LB with 0.5 μg/mL PMB were used for all experiments. A) Cell membrane potential was monitored with the fluorescent dye DiSC3 (5). Cells were treated at time 0 with DMSO, JD1 [70 μM], or D66. Data were normalized to DMSO at time 0 and corrected for the quenching effect of D66 (FIG. 6A, B) B) Cell membrane permeability was monitored by PI fluorescence. Cells were treated at time 0 with DMSO, SDS [0.005%] or D66. Samples were processed at the time points shown. A one-way ANOVA with a Dunnet's multiple comparison test, * P<0.005. C-F) Growth curves and kill-curves of cells treated at time 0 with either DMSO or D66. Culture aliquots were monitored for OD600 (C, E) or plated for enumeration of CFU (D, F). Data are presented as fold change. Mean and SEM of three biological replicates with technical triplicates are shown in all panels.
Bacterial Membrane potential assays: Membrane potential was measured using the potentiometric fluorescent probe DiSC3 (5) (Invitrogen). Mid-log phase cells were diluted to an OD600 of 0.4. […] Plates were monitored (ex650/em680 nm) on a BioTek Synergy H1 plate reader. After baseline fluorescence was recorded, compound was added to the desired final concentration and measurements were recorded for an additional 30 minutes. […]

[3] = test system: RAW 264.7 cells; assay: LDH release assay
Method: FIG. 5A-C. […] Mice were euthanized 48 hours after infection. […] Significance was determined by Mann-Whitney.
LDH assays: An LDH-cytotoxicity assay kit (Abcam ab65393) was used according to the manufacturer's instructions. RAW 264.7 cells were seeded and remained uninfected or with infected as described for the CFU assay with SL1344.

[4] = test system: one-day-old staphylococcal biofilms; assay: One-day-old staphylococcal biofilms; details: biofilms established 24 hours in TSB, treated 18 hours
Method: For the indicated strain, biofilms established in TSB for 24 hours were treated for 18 hours with DMSO, rifampin (1x MIC95=0.05 μg/mL), vancomycin (1x MIC95=1 μg/mL), or D66. The remaining biofilm (A-D) matrix was quantified with crystal violet or E-F) volume was quantified after Syto9 and PI staining as in FIG. 5. G, H) Syto9 and PI-stained Z-stacked images were converted to volumes. Volume data were compiled and reconstructed in Nikon Elements Advanced Research software using a color-coded volume display where blue is the bottom, lowest Z-stack and magenta is the highest point for each sample. Scale bar is in um.
Asterisks indicate P≤0.05 as determined by one-way ANOVA compared to DMSO. A-D are means and SEMs from three biological replicates performed in triplicate. E-F are means and SDs of one of two replicates derived from a minimum of four fields of view. G-H are representative images from this same replicate as in E-F.

SMILES: O=C(Nc1cc(Cl)cc(Cl)c1)N1CCCN(Cc2ccccc2)CC1 [D66]
- growth inhibition in the presence of polymyxin B nonapeptide (PMBN) ([1]; PMBN [20 μg/mL], MHB): did not enable D66 to inhibit growth
- cMIC95 in LB ([1]; S. Typhimurium (SL1344) w/PMB (0.5 ug/mL), LB): 54 µM
- cMIC95 in MHB ([1]; S. Typhimurium (SL1344) w/PMB (0.5 ug/mL), MHB): 46 µM
- cMIC95 in LB ([1]; S. Typhimurium (SL1344), LB): >150 µM
- cMIC95 in MHB ([1]; S. Typhimurium (SL1344), MHB): >150 µM
- MIC50 ([1]; S. Typhimurium (SL1344) w/PMB (0.5 ug/mL), LB, read-out: MIC50 in LB): 45 µM and 17 µg/mL
- MIC50 ([1]; S. Typhimurium (SL1344) w/PMB (0.5 ug/mL), MHB, read-out: MIC50 in MHB): 40 ± 1 µM
- MIC50 ([1]; S. Typhimurium (SL1344), LB, read-out: MIC50 in LB): > 150 µM and > 57 µg/mL
- MIC50 ([1]; S. Typhimurium (SL1344), MHB, read-out: MIC50 in MHB): > 150 µM
- DiSC3(5) fluorescence (membrane voltage) [2]: rapidly increased the fluorescence of DiSC3 (5) in a dose-dependent manner
- LDH release ([3]; RAW 264.7 cells infected with S. Typhimurium SL1344, 16 hours): reduced the percentage of cells that released LDH in a dose-dependent manner
- LDH release ([3]; uninfected RAW 264.7 cells, 16 hours): little effect on LDH release
- number of live cells in one-day-old biofilms [4]: decreases the number of live cells
